Where two headings read alike, the source gives them in different places.
Tests used:
[1] = target: T1, ret kinase (intracellular portion of ret, amino acids 713-1072 of the short isoform) (Homo sapiens, UniProt P07949); test: Ret kinase enzyme assay; type: biochemical
T1 sequence (P07949 713-1072 isoform P07949-2): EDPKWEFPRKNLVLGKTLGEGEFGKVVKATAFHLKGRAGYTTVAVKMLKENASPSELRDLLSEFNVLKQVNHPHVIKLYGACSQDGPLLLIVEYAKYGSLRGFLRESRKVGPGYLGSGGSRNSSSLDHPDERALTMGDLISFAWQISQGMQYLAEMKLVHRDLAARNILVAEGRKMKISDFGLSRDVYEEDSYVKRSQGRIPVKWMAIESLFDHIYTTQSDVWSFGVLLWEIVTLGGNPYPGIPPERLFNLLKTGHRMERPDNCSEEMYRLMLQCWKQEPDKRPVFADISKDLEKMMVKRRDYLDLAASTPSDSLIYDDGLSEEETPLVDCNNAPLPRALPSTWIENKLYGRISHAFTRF
Description: The ret kinase assay used the intracellular portion of ret (amino acids 713-1072 of the short isoform) produced in SF9 insect cells and purified on a nickel column. The assay was performed in a 45 μL volume with increasing concentrations of tyrosine kinase inhibitor (TKI) in triplicate in a 96-well plate format as follows: • 4.5 μL 500 mM Morpholinopropanesulfonic acid, pH 7.4 • 4.5 μL 100 μM adenosine triphosphate • 4.5 μL 250 mM MgCl2 • 1.0 μL γ-ATP^33 (1 microCi)(3000 Ci/mMol) • 2.04 (5 mg/ml) poly Glutamic acid-Tyrosine (Sigma (P-0275)) • 234H20 • 1.04 recombinant ret (100 ng) • 4.5 μL 10× Tyrosine kinase inhibitor
The components were incubated in triplicate for 30 minutes at room temperature within a 96-well plate in triplicate. The reaction was stopped by adding 45 μL 0.5% H3PO4 to each well. 75 μL of the reaction mixture was spotted onto phosphocellulose paper (Millipore, cat #MAPHN0B50) and was washed 3 times with 2004 0.5% H3PO4. Each phosphocellulase filter was transferred into a separate scintillation vial, 1 ml cytoscint fluid was added, and the sample counted on a Packard 1900TR liquid scintillation analyzer for 1 minute.
Concentrations of Example 1 tested in the ret enzyme kinase assay to determine the IC50 were 0, 0.5, 1, 5, 10, 50, 100, and 250 nM.

c-src = c-src (Homo sapiens, UniProt P12931); test: c-src kinase inhibition; type: biochemical; conditions: read-out: c-src, range of activity, pIC50 values (converted)
VEFGR2 = VEFGR2 (Homo sapiens, UniProt P35968); test: VEFGR2 kinase inhibition; type: biochemical; conditions: read-out: VEFGR2, range of activity, pIC50 values (converted)
[2] = system: TT cells, a medullary thyroid cancer cell line with constitutively activated ret; test: MTT assay, TT cell proliferation; type: cell-based; conditions: Homo sapiens, 168 hours with compound
Description: The potency of the compound of the invention was tested for its ability to inhibit cell proliferation and cell viability.

[3] = ret kinase enzyme assay, read-out: Ret, range of activity, pIC50 values (converted)

c-src, sequence (P12931 whole entry, species assumed): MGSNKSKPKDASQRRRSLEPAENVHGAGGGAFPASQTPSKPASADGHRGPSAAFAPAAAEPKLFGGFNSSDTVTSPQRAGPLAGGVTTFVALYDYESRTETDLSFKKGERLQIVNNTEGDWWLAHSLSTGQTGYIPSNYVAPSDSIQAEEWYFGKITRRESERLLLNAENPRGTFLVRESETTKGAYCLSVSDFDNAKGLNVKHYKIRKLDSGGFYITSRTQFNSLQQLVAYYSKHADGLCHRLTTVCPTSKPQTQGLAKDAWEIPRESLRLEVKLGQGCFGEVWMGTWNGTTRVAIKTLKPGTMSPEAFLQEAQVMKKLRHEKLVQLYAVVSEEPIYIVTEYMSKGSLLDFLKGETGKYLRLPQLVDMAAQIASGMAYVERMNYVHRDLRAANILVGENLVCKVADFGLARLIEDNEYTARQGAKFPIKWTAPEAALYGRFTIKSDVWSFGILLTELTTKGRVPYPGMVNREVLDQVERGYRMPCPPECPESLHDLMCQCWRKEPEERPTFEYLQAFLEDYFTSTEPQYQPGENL
VEFGR2, sequence (P35968 20-1356): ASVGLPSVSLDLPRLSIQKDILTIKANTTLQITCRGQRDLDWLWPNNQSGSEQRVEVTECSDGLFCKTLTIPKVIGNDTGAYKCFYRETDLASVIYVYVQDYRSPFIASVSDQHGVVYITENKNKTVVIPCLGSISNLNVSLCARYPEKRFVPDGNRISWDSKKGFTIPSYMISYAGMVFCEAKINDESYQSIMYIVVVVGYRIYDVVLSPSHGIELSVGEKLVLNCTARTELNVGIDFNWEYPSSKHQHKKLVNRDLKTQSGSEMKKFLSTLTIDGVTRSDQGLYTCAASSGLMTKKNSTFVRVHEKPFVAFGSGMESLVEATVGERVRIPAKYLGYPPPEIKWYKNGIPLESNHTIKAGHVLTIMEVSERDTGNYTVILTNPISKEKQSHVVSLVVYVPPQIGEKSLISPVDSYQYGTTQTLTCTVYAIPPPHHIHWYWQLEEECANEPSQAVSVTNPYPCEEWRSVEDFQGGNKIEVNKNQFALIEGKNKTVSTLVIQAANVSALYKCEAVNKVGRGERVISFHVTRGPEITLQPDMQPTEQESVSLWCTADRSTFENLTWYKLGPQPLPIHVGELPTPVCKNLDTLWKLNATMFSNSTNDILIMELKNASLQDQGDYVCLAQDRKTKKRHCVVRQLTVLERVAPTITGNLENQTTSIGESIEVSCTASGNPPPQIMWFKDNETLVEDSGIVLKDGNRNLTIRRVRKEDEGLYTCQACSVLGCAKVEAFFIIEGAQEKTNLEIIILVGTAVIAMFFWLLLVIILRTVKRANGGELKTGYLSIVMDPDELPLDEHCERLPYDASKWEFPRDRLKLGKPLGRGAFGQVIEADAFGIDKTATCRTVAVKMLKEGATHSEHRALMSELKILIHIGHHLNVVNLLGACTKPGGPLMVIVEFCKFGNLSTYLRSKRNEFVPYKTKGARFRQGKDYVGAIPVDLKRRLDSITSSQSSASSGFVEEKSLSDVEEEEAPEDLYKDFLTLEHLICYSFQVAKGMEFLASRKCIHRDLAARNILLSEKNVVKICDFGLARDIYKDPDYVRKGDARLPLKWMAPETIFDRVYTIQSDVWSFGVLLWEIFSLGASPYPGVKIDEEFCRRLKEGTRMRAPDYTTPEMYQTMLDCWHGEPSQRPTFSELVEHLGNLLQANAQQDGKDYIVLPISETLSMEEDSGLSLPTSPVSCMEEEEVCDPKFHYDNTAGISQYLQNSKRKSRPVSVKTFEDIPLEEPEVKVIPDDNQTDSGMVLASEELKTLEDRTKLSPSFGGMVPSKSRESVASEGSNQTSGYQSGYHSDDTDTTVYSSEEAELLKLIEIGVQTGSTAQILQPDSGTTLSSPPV

Row | SMILES | IC50 [1, 3] [nM] | IC50 (c-src) [nM] | IC50 (VEFGR2) [nM] | IC50 [2] [nM] | IC50 [1] [nM]
1 | Oc1cc(Nc2ccnc3cc(-c4cccc(CNCCN5CCOCC5)c4)ccc23)c(F)cc1Cl [Example 4, 2-chloro-4-fluoro-5-({7-[3-({[2-(4-morpholinyl)ethyl]amino}methyl)phenyl]-4-quinolinyl}amino)phenol] | – | < 10 | < 10 | – | 10 to 100
2 | CS(=O)(=O)c1ccc2nccc(Nc3cc(O)c(F)cc3Cl)c2c1 [Example 6, 4-chloro-2-fluoro-5-{[6-(methysulfonuyl)-4-quinolinyl]amino}phenol] | < 10 | – | – | < 1000 | –
3 | Cc1ccc(O)cc1Nc1ccnc2ccc(C(=O)NC(C)C)cc12 [Example 10] | 10 to 100 | – | 100 to 1000 | – | –

The next lines start with results.

Row | IC50 [1, 3] [nM] | IC50 (c-src) [nM] | IC50 (VEFGR2) [nM] | IC50 [2] [nM] | SMILES | IC50 [1] [nM]
4 | < 10 | < 10 | – | – | Oc1cccc(Nc2ccnc3cc(-c4ccccn4)ccc23)c1 [Example 1, 3-{[7-(2-pyridinyl)-4-quinolinyl]amino}phenol] | –
5 | 10 to 100 | 10 to 100 | < 10 | – | Oc1cc(Nc2ccnc3cc(-c4cc5ccccc5o4)ccc23)ccc1Br [Example 3, 5-{[7-(1-benzofuran-2-yl)-4-quinolinyl]amino}-2-bromophenol] | –
6 | 10 to 100 | < 10 | – | – | OCc1nc(-c2ccc3c(Nc4cc(O)c(F)cc4Cl)ccnc3c2)cs1 [Example 7, 4-chloro-2-fluoro-5-({7-[2-(hydroxymethyl)-1,3-thiazol-4-yl]-4-quinolinyl}amino)phenol] | –
